Assay results: ChEMBL document CHEMBL1909046, “DrugMatrix in vitro pharmacology data”

How the values were obtained:
[1] = DRUGMATRIX: Sigma2 radioligand binding (ligand: [3H] Ifenprodil); type: cell membranes, Rattus norvegicus, Wistar, Brain, Membrane; settings: Not Active = under 50% inhibition at 10 µM
Substance-P receptor = Substance-P receptor (Homo sapiens, UniProt P25103); type: cell membranes, CHO, Membrane; settings: cho; also: in other assays of this panel Not Active means under 50% inhibition at 10 µM
[2] = target: Vascular endothelial growth factor receptor 1 (Homo sapiens, UniProt P17948); type: cell-based; settings: huvec; also: in other assays of this panel Not Active means under 50% inhibition at 10 µM
Endothelin-1 receptor = target: T1, Endothelin-1 receptor (Homo sapiens, UniProt P25101); type: cell membranes, CHO-K1, Membrane; settings: cho-k1; also: in other assays of this panel Not Active means under 50% inhibition at 10 µM
T1 sequence (P25101 whole entry): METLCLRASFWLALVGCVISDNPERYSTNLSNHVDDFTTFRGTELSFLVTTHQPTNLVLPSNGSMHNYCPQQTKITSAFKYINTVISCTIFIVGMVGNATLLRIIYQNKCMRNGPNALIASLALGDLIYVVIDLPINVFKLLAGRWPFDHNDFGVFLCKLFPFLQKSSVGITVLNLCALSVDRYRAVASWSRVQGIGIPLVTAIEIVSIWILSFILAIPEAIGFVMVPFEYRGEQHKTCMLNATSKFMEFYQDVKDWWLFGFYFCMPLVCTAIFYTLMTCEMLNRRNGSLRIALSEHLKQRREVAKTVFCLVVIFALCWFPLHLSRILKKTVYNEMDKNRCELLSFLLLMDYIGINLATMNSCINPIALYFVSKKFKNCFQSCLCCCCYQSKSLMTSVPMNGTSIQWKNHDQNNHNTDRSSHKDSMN

[3] = DRUGMATRIX: Phosphodiesterase PDE3 enzyme inhibition (substrate: [3H]cAMP + cAMP); type: tissue-based, Homo sapiens; settings: platelet; Not Active = under 50% inhibition at 10 µM
[4] = target: Mitogen-activated protein kinase 14 (Homo sapiens, UniProt Q16539); design: species or system Escherichia coli;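 also: inhibition of p38alpha enzyme activity in a biochemical kinase assay, with myelin basic protein serving as substrate; in other assays of this panel Not Active means under 50% inhibition at 10 µM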
Acetylcholinesterase = Acetylcholinesterase (Homo sapiens, UniProt P22303); experiment: DRUGMATRIX: Acetylcholinesterase enzyme inhibition (substrate: acetylthiocholine); type: cell-based, HEK293; settings: hek293; Not Active = under 50% inhibition at 10 µM
Cytochrome P450 2C9 = Cytochrome P450 2C9 (Homo sapiens, UniProt P11712); settings: bti-tn-5b1-4; also: in other assays of this panel Not Active means under 50% inhibition at 10 µM
Cytochrome P450 2C9, sequence (P11712 whole entry): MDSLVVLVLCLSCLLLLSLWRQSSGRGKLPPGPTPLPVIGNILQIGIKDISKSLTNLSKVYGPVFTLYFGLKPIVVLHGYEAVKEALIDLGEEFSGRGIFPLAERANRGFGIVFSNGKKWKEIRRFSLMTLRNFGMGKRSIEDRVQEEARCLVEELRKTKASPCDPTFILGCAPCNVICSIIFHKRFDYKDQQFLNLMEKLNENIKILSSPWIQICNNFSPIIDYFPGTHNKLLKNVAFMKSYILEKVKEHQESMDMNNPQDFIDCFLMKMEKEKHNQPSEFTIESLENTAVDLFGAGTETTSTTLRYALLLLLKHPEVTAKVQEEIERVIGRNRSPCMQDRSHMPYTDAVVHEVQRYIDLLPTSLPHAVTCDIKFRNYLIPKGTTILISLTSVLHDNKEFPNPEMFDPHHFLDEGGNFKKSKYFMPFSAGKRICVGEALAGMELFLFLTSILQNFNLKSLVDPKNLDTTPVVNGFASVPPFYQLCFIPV

Acetylcholinesterase, sequence (P22303 whole entry): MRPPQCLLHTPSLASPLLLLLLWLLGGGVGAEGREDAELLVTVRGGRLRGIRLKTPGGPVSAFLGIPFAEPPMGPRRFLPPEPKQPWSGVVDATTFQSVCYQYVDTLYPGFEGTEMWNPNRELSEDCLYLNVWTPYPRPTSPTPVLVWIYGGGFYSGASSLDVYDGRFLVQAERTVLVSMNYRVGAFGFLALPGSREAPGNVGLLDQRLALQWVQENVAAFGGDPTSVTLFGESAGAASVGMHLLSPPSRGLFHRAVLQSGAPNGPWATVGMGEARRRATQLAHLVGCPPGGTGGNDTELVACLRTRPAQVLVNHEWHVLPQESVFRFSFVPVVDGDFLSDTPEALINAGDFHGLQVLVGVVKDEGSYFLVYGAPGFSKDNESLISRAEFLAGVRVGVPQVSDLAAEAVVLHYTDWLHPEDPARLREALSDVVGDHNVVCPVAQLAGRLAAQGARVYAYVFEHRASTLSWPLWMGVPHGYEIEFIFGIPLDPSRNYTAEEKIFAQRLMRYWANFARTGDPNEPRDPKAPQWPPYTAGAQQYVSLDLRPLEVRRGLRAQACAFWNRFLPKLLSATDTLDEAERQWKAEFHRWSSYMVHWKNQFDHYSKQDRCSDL
Mitogen-activated protein kinase 14, sequence (Q16539 whole entry): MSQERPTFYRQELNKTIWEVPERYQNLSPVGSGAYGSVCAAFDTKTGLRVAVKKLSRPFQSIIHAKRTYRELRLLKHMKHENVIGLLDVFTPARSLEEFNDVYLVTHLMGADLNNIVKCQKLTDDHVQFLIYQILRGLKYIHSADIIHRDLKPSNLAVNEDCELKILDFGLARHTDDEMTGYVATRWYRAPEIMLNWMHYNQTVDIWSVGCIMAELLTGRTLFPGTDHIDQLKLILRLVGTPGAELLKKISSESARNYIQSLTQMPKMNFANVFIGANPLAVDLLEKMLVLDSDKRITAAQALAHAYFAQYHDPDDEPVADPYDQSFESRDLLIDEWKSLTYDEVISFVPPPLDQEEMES
Vascular endothelial growth factor receptor 1, sequence (P17948 whole entry): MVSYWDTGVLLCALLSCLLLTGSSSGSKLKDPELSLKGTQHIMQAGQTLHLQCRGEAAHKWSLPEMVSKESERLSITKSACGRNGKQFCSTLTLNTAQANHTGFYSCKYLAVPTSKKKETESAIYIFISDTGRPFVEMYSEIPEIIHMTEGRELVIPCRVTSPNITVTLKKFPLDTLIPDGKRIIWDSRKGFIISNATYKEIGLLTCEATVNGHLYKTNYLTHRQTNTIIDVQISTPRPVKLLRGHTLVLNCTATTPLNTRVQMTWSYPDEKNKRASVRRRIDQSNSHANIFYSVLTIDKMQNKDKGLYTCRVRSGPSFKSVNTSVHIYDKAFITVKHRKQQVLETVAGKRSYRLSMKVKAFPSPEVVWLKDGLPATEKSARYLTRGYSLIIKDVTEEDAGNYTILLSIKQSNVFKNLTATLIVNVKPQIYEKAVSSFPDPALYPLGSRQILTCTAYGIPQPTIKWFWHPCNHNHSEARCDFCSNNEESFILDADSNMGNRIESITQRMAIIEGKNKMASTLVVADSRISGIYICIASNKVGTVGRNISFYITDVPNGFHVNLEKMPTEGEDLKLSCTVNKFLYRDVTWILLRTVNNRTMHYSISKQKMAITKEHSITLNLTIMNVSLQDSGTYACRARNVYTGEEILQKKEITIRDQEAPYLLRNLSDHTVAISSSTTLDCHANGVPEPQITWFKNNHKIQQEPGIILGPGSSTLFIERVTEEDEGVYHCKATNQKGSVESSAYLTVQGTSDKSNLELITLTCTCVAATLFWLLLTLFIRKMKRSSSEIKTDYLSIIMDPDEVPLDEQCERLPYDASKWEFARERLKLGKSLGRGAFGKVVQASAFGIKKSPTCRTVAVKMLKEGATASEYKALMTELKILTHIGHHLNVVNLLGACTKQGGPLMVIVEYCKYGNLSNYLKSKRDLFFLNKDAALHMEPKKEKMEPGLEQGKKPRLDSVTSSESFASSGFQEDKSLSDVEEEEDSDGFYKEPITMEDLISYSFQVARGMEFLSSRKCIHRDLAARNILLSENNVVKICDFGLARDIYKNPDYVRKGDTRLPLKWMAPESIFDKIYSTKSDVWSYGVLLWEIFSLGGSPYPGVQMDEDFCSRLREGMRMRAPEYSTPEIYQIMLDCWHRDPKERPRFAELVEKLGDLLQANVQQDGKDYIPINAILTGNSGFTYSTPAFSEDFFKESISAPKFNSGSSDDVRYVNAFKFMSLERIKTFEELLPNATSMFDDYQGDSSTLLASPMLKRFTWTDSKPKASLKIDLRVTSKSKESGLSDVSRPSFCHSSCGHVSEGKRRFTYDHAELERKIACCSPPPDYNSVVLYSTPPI
Substance-P receptor, sequence (P25103 whole entry): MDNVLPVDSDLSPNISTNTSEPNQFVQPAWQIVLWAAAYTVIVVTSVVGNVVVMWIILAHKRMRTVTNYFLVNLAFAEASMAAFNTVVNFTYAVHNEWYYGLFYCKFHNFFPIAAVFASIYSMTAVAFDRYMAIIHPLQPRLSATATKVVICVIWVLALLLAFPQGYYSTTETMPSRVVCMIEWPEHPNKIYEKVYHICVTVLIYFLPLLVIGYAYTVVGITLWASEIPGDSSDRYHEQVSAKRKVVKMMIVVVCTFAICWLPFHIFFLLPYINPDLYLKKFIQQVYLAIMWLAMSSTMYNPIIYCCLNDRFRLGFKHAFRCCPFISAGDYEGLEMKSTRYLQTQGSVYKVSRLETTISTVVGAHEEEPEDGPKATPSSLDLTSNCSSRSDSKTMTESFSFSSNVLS

Nc1nc2c(ncn2CCC(CO)CO)c(=O)[nH]1 [PENCICLOVIR]
Not Active: IC50 [1] | Ki [1] | IC50 (Substance-P receptor) | IC50 [2] | IC50 (Endothelin-1 receptor) | IC50 [3] | Ki [3] | IC50 [4] | IC50 (Acetylcholinesterase) | IC50 (Cytochrome P450 2C9) | Ki (Cytochrome P450 2C9)

C=C(C)C1(O)OC(=O)C=C1OC (stereo not drawn) [PENICILLIC ACID]
Not Active: IC50 [1] | Ki [1] | IC50 (Substance-P receptor) | IC50 [2] | IC50 (Endothelin-1 receptor) | IC50 [3] | Ki [3] | IC50 [4] | IC50 (Acetylcholinesterase) | IC50 (Cytochrome P450 2C9) | Ki (Cytochrome P450 2C9)

CCCN1C[C@H](CSC)C[C@@H]2c3cccc4[nH]cc(c34)C[C@H]21 [PERGOLIDE]
Not Active: IC50 [1] | Ki [1] | IC50 (Substance-P receptor) | IC50 [2] | IC50 (Endothelin-1 receptor) | IC50 [3] | Ki [3] | IC50 [4] | IC50 (Acetylcholinesterase) | IC50 (Cytochrome P450 2C9) | Ki (Cytochrome P450 2C9)

C1CCC(C(CC2CCCCN2)C2CCCCC2)CC1 (stereo not drawn) [PERHEXILINE]
Not Active: IC50 [1] | Ki [1] | IC50 (Substance-P receptor) | IC50 [2] | IC50 (Endothelin-1 receptor) | IC50 [3] | Ki [3] | IC50 [4] | IC50 (Acetylcholinesterase) | IC50 (Cytochrome P450 2C9) | Ki (Cytochrome P450 2C9)

CCOc1ccc(NC(C)=O)cc1 [PHENACETIN]
Not Active: IC50 [1] | Ki [1] | IC50 (Substance-P receptor) | IC50 [2] | IC50 (Endothelin-1 receptor) | IC50 [3] | Ki [3] | IC50 [4] | IC50 (Acetylcholinesterase) | IC50 (Cytochrome P450 2C9) | Ki (Cytochrome P450 2C9)

Cc1ccc(N(CC2=NCCN2)c2cccc(O)c2)cc1 [PHENTOLAMINE]
Not Active: IC50 [1] | Ki [1] | IC50 (Substance-P receptor) | IC50 [2] | IC50 (Endothelin-1 receptor) | IC50 [3] | Ki [3] | IC50 [4] | IC50 (Acetylcholinesterase) | IC50 (Cytochrome P450 2C9) | Ki (Cytochrome P450 2C9)

CNNCc1ccc(C(=O)NC(C)C)cc1 [PROCARBAZINE]
Not Active: IC50 [1] | Ki [1] | IC50 (Substance-P receptor) | IC50 [2] | IC50 (Endothelin-1 receptor) | IC50 [3] | Ki [3] | IC50 [4] | IC50 (Acetylcholinesterase) | IC50 (Cytochrome P450 2C9) | Ki (Cytochrome P450 2C9)

CC(O)CO (stereo not drawn) [PROPYLENE GLYCOL]
Not Active: IC50 [1] | Ki [1] | IC50 (Substance-P receptor) | IC50 [2] | IC50 (Endothelin-1 receptor) | IC50 [3] | Ki [3] | IC50 [4] | IC50 (Acetylcholinesterase) | IC50 (Cytochrome P450 2C9) | Ki (Cytochrome P450 2C9)
